# Experimental data from patent US8546451B2 (priority 2005, dated 2013).
# Marks after values point to notes of the source that are not given here.
# What was measured:
# hERG channel = hERG channel (Homo sapiens (Human), UniProt Q12809); experiment: hERG channel inhibition in vitro; assay type: cell-based
# Experimental: Compound IV exerts little or no in vitro inhibitory effects (IC50≧300 μM) on the hERG channel.
# CYP3A4/5 = experiment: CYP450 inhibition in vitro, CYP3A4/5; assay type: in vitro ADME; settings: at concentrations <30 μM
# CYP1A2 [1] = target: CYP1A2 (Homo sapiens (Human), UniProt P05177); experiment: CYP450 inhibition in vitro, CYP1A2; assay type: in vitro ADME; settings: at concentrations <30 μM
# Chain of CYP1A2 (Homo sapiens (Human), UniProt P05177) (P05177 whole entry): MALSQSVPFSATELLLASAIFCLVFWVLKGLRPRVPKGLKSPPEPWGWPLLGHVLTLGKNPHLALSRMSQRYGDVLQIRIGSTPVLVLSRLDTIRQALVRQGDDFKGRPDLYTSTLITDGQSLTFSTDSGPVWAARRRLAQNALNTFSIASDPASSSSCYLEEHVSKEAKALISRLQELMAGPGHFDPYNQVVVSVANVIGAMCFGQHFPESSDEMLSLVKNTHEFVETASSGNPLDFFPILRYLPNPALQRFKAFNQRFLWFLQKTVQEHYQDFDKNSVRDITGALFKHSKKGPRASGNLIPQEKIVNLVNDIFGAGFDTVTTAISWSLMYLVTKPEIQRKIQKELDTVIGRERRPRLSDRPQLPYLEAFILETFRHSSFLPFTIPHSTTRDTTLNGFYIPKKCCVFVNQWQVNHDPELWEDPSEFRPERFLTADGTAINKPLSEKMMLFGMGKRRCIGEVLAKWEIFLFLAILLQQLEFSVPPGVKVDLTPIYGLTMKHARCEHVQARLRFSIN
# [2] = system: circulating androgen (primarily testosterone and dihydrotestosterone); experiment: Suppression and recovery of androgen levels in intact male monkeys; assay type: in vivo, Cynomolgus monkeys; design: circulating androgen levels: unit not given here
# Experimental: The effect of Compound IV on suppression and recovery of testosterone levels in intact male monkeys was evaluated in conjunction with an oral pharmacokinetic study. Three treatment naïve male Cynomolgus monkeys (2 to 3 years old) were administered Compound IV at 30 mg/kg daily by oral gavage for 7 consecutive days. Blood samples were collected and divided into serum and plasma for testosterone and Compound IV quantitative measurements, respectively.
# PPAR-α = PPAR-α (Homo sapiens (Human), UniProt Q07869); experiment: Cross-reactivity transcriptional activation assay, PPAR-α; assay type: cell-based; settings: agonist and antagonist modes
# Chain of PPAR-α (Q07869 whole entry, canonical isoform): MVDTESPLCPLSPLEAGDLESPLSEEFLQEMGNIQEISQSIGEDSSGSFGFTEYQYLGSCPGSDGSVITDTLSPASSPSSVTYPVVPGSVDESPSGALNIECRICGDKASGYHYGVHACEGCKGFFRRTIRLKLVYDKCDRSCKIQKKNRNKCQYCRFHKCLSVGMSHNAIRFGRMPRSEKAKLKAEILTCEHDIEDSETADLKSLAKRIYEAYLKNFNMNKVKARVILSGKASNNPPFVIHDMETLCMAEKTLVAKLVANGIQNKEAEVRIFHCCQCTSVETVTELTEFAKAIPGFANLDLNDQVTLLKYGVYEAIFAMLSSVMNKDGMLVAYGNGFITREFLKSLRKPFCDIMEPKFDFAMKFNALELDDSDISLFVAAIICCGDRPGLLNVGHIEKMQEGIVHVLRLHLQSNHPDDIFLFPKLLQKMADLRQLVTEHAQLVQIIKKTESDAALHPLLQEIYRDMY
# Source text: (§1) Compound IV was screened for cross-reactivity against rat isoforms of glucocorticoid receptor (GR), mineralocorticoids receptor (MR), progesterone receptor (PR), androgen receptor (AR) and human isoforms of farnesoid X receptor (FXR), liver X receptor (LXR), peroxisome proliferator-activated receptors (PPAR-α and PPAR-γ), and retinoid X receptor (RXR-α) in both agonist and antagonist modes in transcriptional activation assays.
# dogs = experiment: Single and repeated oral administration toxicity in dogs; assay type: in vivo
# Source text: (§2) Compound IV was well-tolerated by rats and dogs after single and repeated oral administration (up to 28 days).
# androgen receptor (AR) = androgen receptor (AR) (Rattus norvegicus (Rat), UniProt P15207); experiment: DES versus Compound IV, AR crossreaction (FIG. 12B); assay type: cell-based
# Chain of androgen receptor (AR) (P15207 whole entry S389L): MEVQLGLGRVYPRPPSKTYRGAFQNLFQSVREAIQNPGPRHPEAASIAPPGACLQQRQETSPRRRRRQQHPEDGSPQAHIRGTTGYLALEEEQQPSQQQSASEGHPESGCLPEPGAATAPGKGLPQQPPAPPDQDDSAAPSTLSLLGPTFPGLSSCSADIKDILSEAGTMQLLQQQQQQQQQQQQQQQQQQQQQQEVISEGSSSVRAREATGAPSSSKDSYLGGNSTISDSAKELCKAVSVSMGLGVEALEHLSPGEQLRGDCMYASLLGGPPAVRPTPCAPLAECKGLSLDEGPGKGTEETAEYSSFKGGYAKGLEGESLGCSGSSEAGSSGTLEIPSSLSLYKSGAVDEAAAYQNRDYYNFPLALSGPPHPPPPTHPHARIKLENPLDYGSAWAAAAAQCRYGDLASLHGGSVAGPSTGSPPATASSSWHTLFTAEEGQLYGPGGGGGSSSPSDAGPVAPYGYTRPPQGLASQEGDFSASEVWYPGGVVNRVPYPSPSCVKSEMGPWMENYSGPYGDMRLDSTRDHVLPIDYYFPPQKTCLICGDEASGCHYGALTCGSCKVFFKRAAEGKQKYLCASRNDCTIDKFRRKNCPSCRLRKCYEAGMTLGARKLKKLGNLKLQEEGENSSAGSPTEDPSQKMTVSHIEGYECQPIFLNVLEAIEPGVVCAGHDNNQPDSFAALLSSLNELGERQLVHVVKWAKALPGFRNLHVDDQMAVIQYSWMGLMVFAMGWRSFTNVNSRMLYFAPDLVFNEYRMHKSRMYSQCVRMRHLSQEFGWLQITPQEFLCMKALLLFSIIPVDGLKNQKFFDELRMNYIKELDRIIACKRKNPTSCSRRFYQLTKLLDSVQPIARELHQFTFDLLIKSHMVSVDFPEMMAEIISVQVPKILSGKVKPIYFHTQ
# [3] = system: LH, serum PSA, free testosterone and total testosterone; experiment: Compound IV study on human males; assay type: in vivo
# [4] = Oral bioavailability in rats; assay type: in vivo
# Experimental: Formulations using polyethylene glycol 300 (PEG300) generally produced higher exposures than microemulsions prepared in Tween 80 diluted in deionized water. […] Importantly, in dogs the exposure in the male 30 mg/kg PEG300 oral dose group exceeded the exposure necessary to produce the maximal effect on prostate reduction in the rat model of LH suppression.
# rats = experiment: Single and repeated oral administration toxicity in rats; assay type: in vivo
# Source text: as §2
# [5] = target: retinoid X receptor (RXR-α) (Homo sapiens (Human), UniProt P19793); experiment: Cross-reactivity transcriptional activation assay, RXR-α; assay type: cell-based; settings: agonist and antagonist modes
# Chain of retinoid X receptor (RXR-α) (P19793 whole entry): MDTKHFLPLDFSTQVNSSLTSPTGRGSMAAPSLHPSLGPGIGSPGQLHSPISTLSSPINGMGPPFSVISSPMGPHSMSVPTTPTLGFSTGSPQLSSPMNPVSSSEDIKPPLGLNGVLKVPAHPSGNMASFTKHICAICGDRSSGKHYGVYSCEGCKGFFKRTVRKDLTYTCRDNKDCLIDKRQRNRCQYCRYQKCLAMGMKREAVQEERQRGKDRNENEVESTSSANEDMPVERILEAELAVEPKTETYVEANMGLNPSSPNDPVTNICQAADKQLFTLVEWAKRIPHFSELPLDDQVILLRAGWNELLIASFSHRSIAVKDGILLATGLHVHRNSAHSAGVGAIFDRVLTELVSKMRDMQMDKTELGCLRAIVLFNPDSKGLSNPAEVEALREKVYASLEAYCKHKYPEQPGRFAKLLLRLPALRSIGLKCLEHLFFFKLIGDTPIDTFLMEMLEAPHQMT
# Source text: as §1
# [6] = system: rat bone, organ weight, and serum hormone parameters; experiment: Bone preservation despite reduction of LH and testosterone in rats; assay type: in vivo; settings: for Bone Mineral Density / FSH / LH / Levator Ani Muscle weight / Percent Bone Volume (BV/TV) / Prostate weight / Seminal Vesicles weight: Intact
# CYP1A2 [7] = experiment: CYP450 induction in vitro, CYP1A2; assay type: in vitro ADME
# Chain of hERG channel (Q12809 whole entry): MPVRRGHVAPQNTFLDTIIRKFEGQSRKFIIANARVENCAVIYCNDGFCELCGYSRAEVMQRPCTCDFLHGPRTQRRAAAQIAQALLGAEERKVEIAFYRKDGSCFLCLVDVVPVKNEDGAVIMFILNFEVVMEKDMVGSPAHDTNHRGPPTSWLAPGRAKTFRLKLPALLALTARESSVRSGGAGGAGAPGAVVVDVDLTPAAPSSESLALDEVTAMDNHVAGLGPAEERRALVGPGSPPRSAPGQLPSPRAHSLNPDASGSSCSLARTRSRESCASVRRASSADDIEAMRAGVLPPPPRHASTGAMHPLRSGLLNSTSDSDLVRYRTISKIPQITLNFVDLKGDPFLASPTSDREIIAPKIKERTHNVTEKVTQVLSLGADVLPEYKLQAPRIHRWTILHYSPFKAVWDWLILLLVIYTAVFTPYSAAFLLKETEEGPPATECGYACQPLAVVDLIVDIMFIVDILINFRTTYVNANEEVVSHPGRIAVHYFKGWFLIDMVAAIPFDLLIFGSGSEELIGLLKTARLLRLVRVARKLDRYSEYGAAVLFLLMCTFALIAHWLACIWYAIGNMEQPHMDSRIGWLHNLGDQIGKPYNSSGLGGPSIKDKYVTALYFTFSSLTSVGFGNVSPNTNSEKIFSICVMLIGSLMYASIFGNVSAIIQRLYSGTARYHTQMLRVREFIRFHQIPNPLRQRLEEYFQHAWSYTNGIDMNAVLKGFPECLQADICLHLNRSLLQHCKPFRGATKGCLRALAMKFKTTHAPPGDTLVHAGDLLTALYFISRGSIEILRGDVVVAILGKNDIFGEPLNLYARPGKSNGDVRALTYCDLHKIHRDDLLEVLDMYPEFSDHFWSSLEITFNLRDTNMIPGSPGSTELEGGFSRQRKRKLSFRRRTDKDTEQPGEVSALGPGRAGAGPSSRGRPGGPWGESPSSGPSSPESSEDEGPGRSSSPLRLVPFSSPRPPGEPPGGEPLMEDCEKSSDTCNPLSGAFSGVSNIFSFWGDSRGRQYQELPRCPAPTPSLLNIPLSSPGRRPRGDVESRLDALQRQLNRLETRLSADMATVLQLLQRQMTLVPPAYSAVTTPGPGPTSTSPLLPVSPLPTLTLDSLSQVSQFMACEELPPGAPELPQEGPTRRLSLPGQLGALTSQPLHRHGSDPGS
smiles,measurement,setting,value
"O=C(c1ccc(O)c(F)c1)N(c1ccc(O)cc1)c1ccc(F)cc1 [Compound IV, 3-fluoro-N-(4-fluorophenyl)-4-hydroxy-N-(4-hydroxyphenyl)benzamide]",IC50,hERG channel,≥ 300 µM
same,inhibition of CYP3A4/5,CYP3A4/5,does not inhibit
same,inhibition of CYP1A2,CYP1A2 [1],does not inhibit
same,decrease of circulating androgen levels compared to baseline,[2]; 30 mg/kg daily oral gavage for 7 days,up to 47%
same,circulating androgen levels,"[2]; Day 2, 30 mg/kg daily oral gavage, mean±SEM",997±104
same,circulating androgen levels,"[2]; Day 6, 30 mg/kg daily oral gavage, mean±SEM",852±136
same,circulating androgen levels,[2]; after 18-day drug-free recovery period,1757.7±369.5
same,agonist or antagonist activity,PPAR-α,did not display any agonist or antagonist activity
same,tolerability,"dogs; dogs, single and repeated oral administration (up to 28 days)",well-tolerated
same,"pathologic changes in kidney, liver, heart and other non-target-related organs","dogs; dogs, up to 28 days oral",no pathologic changes observed
same,toxicity findings,"dogs; male or female dogs, oral, up to 28 days","no serious physical signs, body weight effects, clinical pathology changes, ophthalmologic, electrocardiographic, or histopathologic changes"
same,crossreaction with AR,androgen receptor (AR),did not
same,"Free Testosterone, mean change from baseline",[3]; 100 mg,−17.0%
same,"LH, mean change from baseline",[3]; 100 mg,20.7%
same,"Serum PSA, mean change from baseline",[3]; 100 mg,−9.2%
same,"Total Testosterone, mean change from baseline",[3]; 100 mg,3.9%
same,decrease of PSA levels,[3]; 100 mg,9.2%
same,decrease of free testosterone levels,[3]; 100 mg,17.0%
same,"Free Testosterone, mean change from baseline",[3]; 300 mg,−18.5%
same,"LH, mean change from baseline",[3]; 300 mg,46.9%
same,"Serum PSA, mean change from baseline",[3]; 300 mg,−24.4%
same,"Total Testosterone, mean change from baseline",[3]; 300 mg,7.3%
same,decrease of PSA levels,[3]; 300 mg,24.4%
same,decrease of free testosterone levels,[3]; 300 mg,18.5%
same,"Free Testosterone, mean change from baseline",[3]; 600 mg,−72.7%
same,"LH, mean change from baseline",[3]; 600 mg,27.6%
same,"Serum PSA, mean change from baseline",[3]; 600 mg,−27.5%
same,"Total Testosterone, mean change from baseline",[3]; 600 mg,−51.9%
same,decrease of PSA levels,[3]; 600 mg,27.5%
same,decrease of free testosterone levels,[3]; 600 mg,72.7%
same,decrease of total testosterone level,[3]; 600 mg,51.9%
same,"Free Testosterone, mean change from baseline",[3]; 1000 mg,−53.2%
same,"LH, mean change from baseline",[3]; 1000 mg,29.2%
same,"Serum PSA, mean change from baseline",[3]; 1000 mg,−29.9%
same,"Total Testosterone, mean change from baseline",[3]; 1000 mg,−47.9%
same,decrease of PSA levels,[3]; 1000 mg,29.9%
same,decrease of free testosterone levels,[3]; 1000 mg,53.2%
same,decrease of total testosterone level,[3]; 1000 mg,47.9%
same,changes of PSA levels,[3]; 10 and 30 mg doses,No changes
same,absorption following oral dosing,[4],rapidly absorbed
same,bioavailability,"[4]; rat, in vivo, po, depending on the formulation",6 to 25%
same,tolerability,rats; single and repeated oral administration (up to 28 days),well-tolerated
same,"pathologic changes in kidney, liver, heart and other non-target-related organs",rats; up to 28 days oral,no pathologic changes observed
same,agonist or antagonist activity,[5],did not display any agonist or antagonist activity
same,Bone Mineral Density,[6]; 1 mg/kg per day oral,0.273^b g/cm^3
same,FSH,[6]; 1 mg/kg per day oral,"14.1^a,b ng/mL"
same,LH,[6]; 1 mg/kg per day oral,0.820^b ng/mL
same,Levator Ani Muscle weight,[6]; 1 mg/kg per day oral,"80.0^a,b % of Intact"
same,Percent Bone Volume (BV/TV),[6]; 1 mg/kg per day oral,20.0^b %
same,Prostate weight,[6]; 1 mg/kg per day oral,"69.2^a,b % of Intact"
same,Seminal Vesicles weight,[6]; 1 mg/kg per day oral,"44.6^a,b % of Intact"
same,Bone Mineral Density,[6]; 10 mg/kg per day oral,"0.326^a,b g/cm^3"
same,FSH,[6]; 10 mg/kg per day oral,"5.48^a,b ng/mL"
same,LH,[6]; 10 mg/kg per day oral,"0.060^a,b ng/mL"
same,Levator Ani Muscle weight,[6]; 10 mg/kg per day oral,58.1^a % of Intact
same,Percent Bone Volume (BV/TV),[6]; 10 mg/kg per day oral,"25.9^a,b %"
same,Prostate weight,[6]; 10 mg/kg per day oral,"30.7^a,b % of Intact"
same,Seminal Vesicles weight,[6]; 10 mg/kg per day oral,"12.8^a,b % of Intact"
same,Bone Mineral Density,[6]; 30 mg/kg per day oral,"0.326^a,b g/cm^3"
same,FSH,[6]; 30 mg/kg per day oral,"6.32^a,b ng/mL"
same,LH,[6]; 30 mg/kg per day oral,"0.078^a,b ng/mL"
same,Levator Ani Muscle weight,[6]; 30 mg/kg per day oral,56.1^a % of Intact
same,Percent Bone Volume (BV/TV),[6]; 30 mg/kg per day oral,"25.5^a,b %"
same,Prostate weight,[6]; 30 mg/kg per day oral,"30.1^a,b % of Intact"
same,Seminal Vesicles weight,[6]; 30 mg/kg per day oral,"14.4^a,b % of Intact"
same,dose levels with significant reduction of LH,[6]; intact animals,≥ 10 mg/kg per day
same,bone loss associated with LH suppression,"[6]; intact male rats, orally administered",completely prevented the bone loss
same,induction of CYP1A2,CYP1A2 [7],does not induce
